Test results as given in patent US6277867A, “Pesticide compounds, compositions and process for the preparation thereof” (priority 1995, dated 2001).
Where two headings read alike, the source gives them in different places.

Experiments:
[1] = test system: resistant house fly, IX strain; assay: Synergistic activity on resistant house fly, IX strain; assay type: in vivo, Musca domestica; conditions: active ingredient alone
Experimental: (§1) Investigation of Synergistic Activity on Resistant House Fly (Musca domestica) Populations
(§2) Investigation was carried out as described in biological Example 1. LD50 values and synergist ratios were determined as given in Example 2.

[2] = test system: resistant house fly, INSEL strain; assay: Synergistic activity on resistant house fly, INSEL strain; assay type: in vivo, Musca domestica; conditions: active ingredient alone
Experimental: as §1, §2

[3] = test system: two-spotted spider mite (Tetranychus urticae); assay: Synergist activity of compound 599 against two-spotted spider mite; assay type: in vivo; conditions: read-out: LC50
Experimental: From the first pair of leaves of a 1 week old bean plant leaf-discs of […] diameter were cut which were treated by dipping them (5 min) into the test solution consisting of the active ingredient and the synergist in definite concentrations. For the preparation of the stock solutions of required concentration, 10% acetone as co-solvent and 0.1% Tween-80 as detergent were applied. The dried leaf-discs were placed on wet surface and they were infected with […]-up female mites per leaf. […] The experiment was performed in 4 replica.
Synergist activity of compound 599 with various specific acaricides was investigated against two-spotted spider mite (Tetranychus urticae), by the method described in Example 8.

[4] = test system: pea aphid (Acyrthosiphon pisun); assay: Synergist activity against pea aphid, field trial; assay type: in vivo; conditions: dose 50 act. ingr./ha; two days after treatment
Experimental: Synergist Activity Against Pea Aphid (Acyrthosiphon pisun)
Synergist activity of compound No. 599 was tested against pea aphid (Acyrthosiphon pisun) in field trials on small plots (10 m^2). 300 l/ha spray volume was applied using motoric sprayer (Maruyama). Efficacy was expressed by the average number of aphids/leaf before, and two days after the treatment, respectively. (Henderson and Tilton: J. Econ. Entomol., 48:157, 1955).

[5] = test system: two-spotted spider mite (Tetranychus urticae); assay: Synergism of acaricidal effect on two-spotted spider mite (leaf-disc dip); assay type: in vivo; conditions: alone, 48 hours, read-out: Mortality %
Experimental: Synergism of Acaricidal Effect Investigated on Two-spotted Spider Mite (Tetranychus urticae)
From the first pair of leaves of a 1 week old bean plant leaf-discs of […] diameter were cut which were treated by dipping them (5 min) into the test solution consisting of the active ingredient and the synergist in definite concentrations. For the preparation of the stock solutions of required concentration, 10% acetone as co-solvent and 0.1% Tween-80 as detergent were applied. The dried leaf-discs were placed on wet surface and they were infected with […]-up female mites per leaf. After 48 hours the mortality was recorded using microscope and a brush. The experiment was performed in 4 replica.

[6] = test system: cotton bollworm (Helicoverpa armigera); assay: Synergistic activity on cotton bollworm following topical application; conditions: in vivo
Experimental: Investigation of Synergistic Activity on Cotton Bollworm (Helicoverpa armigera) Following Topical Application
Treatment was performed similarity as described in Example 1. but L2 stadium grubs of cotton bollworms (Helicoverpa armigera) were treated as test animals. From the 24 hour dose--mortality data the LD50 (ng/grub) values were determined using probit analysis. None of the synergists acted at the applied 1000 ng/grub dose. Synergist ratio was calculated as the quotient of the LD50 values of carbofuran administered alone, and with the synergist. The experiments were performed in 2-4 replica.

[7] = test system: house fly (Musca domestica); conditions: in vivo, topical_or_ocular, 1440 min
Experimental: Investigation of Synergistic Activity on House Fly (Musca domestica) Following Topical Application
In two parallel experiments 10 female. 2-4 day old house flies were treated on the vental side of their thorax with 0.2 μl of the test solution, with the help of Hamilton MicroLab P microdispenser. Beside fixed synergist dose of 1000 ng/fly the animals were treated with carbofuran at a dose of 20 ng/fly. For solvent cellosolve was used. Selection and counting of the flies were performed under the action of CO2. After treatment the flies were kept in plastic cups covered with tulle. Mortality after 24 hours was expressed in %.

flies = assay: Comparative investigations with known reference synergists on flies treated with carbofuran; assay type: in vivo; conditions: flies treated with carbofuran and 1000 ng of the synergist
Excerpt: These SR50 ratios were compared to those of the new compounds prepared by us.

**Q.** How did the LD50 [1] turn out when `CNC(=O)ON=C(C)SC` [METHOMYL, reference compound] was run?
**A.** 851 ng/fly

**Q.** And the LD50 [2]?
**A.** 475 ng/fly

**Q.** For `CNC(=O)O/N=C/C(C)(C)SC` [ALDICARB, reference compound], which LD50 [1] is on record?
**A.** 2104 ng/fly

**Q.** What about the LD50 [2] of the same compound?
**A.** 695 ng/fly

**Q.** Which LD50 [1] does the source give for `CNC(=O)Oc1cccc2c1OC(C)(C)O2` [BENDIOCARB, reference compound] here?
**A.** 100000 ng/fly

**Q.** And the LD50 [2]?
**A.** 100000 ng/fly

**Q.** What does the source list for `CC(C)(C)c1ccc(CCOc2ncnc3ccccc23)cc1` [FENAZAQUIN]?
**A.** LC50 ([3]; Acaricide/Synergist 1:0, 3 h): > 1000 µg/mL; LC50 ([3]; Acaricide/Synergist 1:0, 24 h): 41.9 µg/mL

**Q.** Which results are given for `CCc1nn(C)c(C(=O)NCc2ccc(C(C)(C)C)cc2)c1Cl` [TEBUFENPYRAD]?
**A.** LC50 ([3]; Acaricide/Synergist 1:0, 3 h): > 1000 µg/mL; LC50 ([3]; Acaricide/Synergist 1:0, 24 h): 63.4 µg/mL

**Q.** Which “E (%)” value [4] does the source give for `CCOC(=O)CSc1nc(C(C)(C)C)nn1C(=O)N(C)C` [TRIAZAMATE] here?
**A.** 96.8%

**Q.** With `CC(C)OC(=O)C(O)(c1ccc(Br)cc1)c1ccc(Br)cc1` [BROMOROPYLATE] as the compound, how does the mortality at 31 ppm ([5]; 31 ppm) read?
**A.** 18%

**Q.** And the mortality at 62 ppm ([5]; 62 ppm)?
**A.** 28%

**Q.** What about the mortality at 125 ppm ([5]; 125 ppm) of the same compound?
**A.** 90%

**Q.** What does the source list for `CC#CCON=C(C)c1cccc2ccccc12` [Compound 571, 1-Aceto-naphthon-oxim-(2-butynyl)-ether]?
**A.** Synergist ratio [6]: > 5; mortality % [7]: 53%; Synergist ratio SR50 (flies): 10.02

**Q.** Which Synergist ratio [6] does the source give for `CC#CCOCC1COc2ccccc2O1` (centres unmarked) [Compound 510, 2-[(2-Butynyloxy)-methyl]-1,4-benzodioxane] here?
**A.** > 5

**Q.** And the mortality % [7]?
**A.** 75%

**Q.** And the “Synergist ratio SR50” value (flies)?
**A.** 18.32
